According to patent US7264832B2, “Cyclooxygenase-2 inhibitory withanolide compositions and method” (Board of Trustees of Michigan State University, priority 2002, dated 2007):

Columns and labels:
[1] = Antioxidant activity: inhibition of Fe2+-initiated lipid peroxidation in large unilamellar vesicles; conditions: 100 ppm (100 μg/ml), at 20 min, relative to DMSO control
Description: The ability of withanolides to inhibit lipid peroxidation in a model system was used to determine whether they could act as antioxidants. The assay was conducted by using large unilamellar vesicles and peroxidation was initiated by adding Fe^2+.
Antioxidant activity. […] The percentage of inhibition was calculated with respect to DMSO control. All compounds were tested at 100 μg/ml and the positive controls BHA, BHT and TBHQ were tested at 10 μM.

[2] = target: T1, COX-2 enzyme (human PGHS-2) isolated from insect cells (Homo sapiens, UniProt P35354); assay: Cyclooxygenase enzyme inhibitory assay, COX-2 (initial rate of O2 uptake)
T1 sequence (P35354 18-604): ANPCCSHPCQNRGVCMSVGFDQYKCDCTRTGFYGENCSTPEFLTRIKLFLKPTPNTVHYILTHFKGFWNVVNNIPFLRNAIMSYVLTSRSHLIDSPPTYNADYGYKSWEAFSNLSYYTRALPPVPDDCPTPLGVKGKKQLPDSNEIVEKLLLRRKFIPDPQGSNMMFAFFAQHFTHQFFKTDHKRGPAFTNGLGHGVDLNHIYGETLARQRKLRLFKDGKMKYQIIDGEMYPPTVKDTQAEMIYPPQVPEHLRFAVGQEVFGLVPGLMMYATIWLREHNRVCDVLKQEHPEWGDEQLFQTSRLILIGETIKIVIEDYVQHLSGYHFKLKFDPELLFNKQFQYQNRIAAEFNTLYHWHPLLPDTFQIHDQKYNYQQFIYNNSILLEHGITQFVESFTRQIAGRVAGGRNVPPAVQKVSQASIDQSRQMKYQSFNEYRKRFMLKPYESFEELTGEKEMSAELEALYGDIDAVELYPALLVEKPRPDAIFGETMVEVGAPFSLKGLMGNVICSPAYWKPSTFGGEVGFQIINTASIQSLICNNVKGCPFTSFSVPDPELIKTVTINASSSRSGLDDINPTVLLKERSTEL
Description: (§1) The withanolides isolated from the leaves were evaluated for their cyclooxygenase (COX) enzyme inhibitory activity using prostaglandin endoperoxide synthase isozymes-1 (COX-1) and PGHS-2 (COX-2).
(§2) Cyclooxygenase enzyme inhibitory assay. COX-1 enzyme was prepared from ram seminal vesicles and COX-2 enzyme was isolated from insect cells cloned with human PGHS-2 enzyme. The inhibitory effects of test compounds on COX-1 and -2 were measured by monitoring the initial rate of 02 uptake using an oxygen electrode (Instech Laboratories, Plymouth Meeting, Pa.) attached to a biological oxygen monitor (Yellow Spring Instrument, Inc., Yellow Spring, Ohio) at 37° C. The enzymes were diluted (1:1) with Tris buffer (pH 7, 10-15 μl) and the test compounds (100 μg/ml, 10 μl) dissolved in DMSO were added to the assay mixture composed of 3 ml of 0.1 M Tris HCl, pH 7, 1 mmol phenol and 85 μg of hemoglobin. […] The instantaneous inhibition was measured by using Quick Log Data acquisition and control computer software (Strawberry Tree Inc., Sunnyvale, Calif., USA).

[3] = target: T2, COX-1 enzyme (prostaglandin endoperoxide synthase isozyme-1) prepared from ram seminal vesicles (Ovis aries, UniProt P05979); assay: Cyclooxygenase enzyme inhibitory assay, COX-1 (initial rate of O2 uptake)
T2 sequence (P05979 25-600): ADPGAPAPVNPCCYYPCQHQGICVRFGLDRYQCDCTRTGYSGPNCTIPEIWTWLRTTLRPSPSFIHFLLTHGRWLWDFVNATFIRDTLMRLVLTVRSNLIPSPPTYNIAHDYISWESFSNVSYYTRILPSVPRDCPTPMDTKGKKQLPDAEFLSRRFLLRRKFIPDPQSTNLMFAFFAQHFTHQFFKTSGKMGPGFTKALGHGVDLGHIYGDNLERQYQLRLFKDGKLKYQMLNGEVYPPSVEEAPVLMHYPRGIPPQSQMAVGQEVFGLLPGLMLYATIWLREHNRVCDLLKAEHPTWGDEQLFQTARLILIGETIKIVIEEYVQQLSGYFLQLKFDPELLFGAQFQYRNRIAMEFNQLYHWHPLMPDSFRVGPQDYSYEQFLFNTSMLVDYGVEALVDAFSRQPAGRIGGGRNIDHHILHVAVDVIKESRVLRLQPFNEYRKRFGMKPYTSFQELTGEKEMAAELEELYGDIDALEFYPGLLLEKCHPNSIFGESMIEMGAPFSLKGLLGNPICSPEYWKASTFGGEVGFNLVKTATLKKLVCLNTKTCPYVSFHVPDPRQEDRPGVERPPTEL
Description: as §1, §2

Compound	COX-2 enzyme inhibition ([2]; 50 μg/ml) [%]	inhibition of lipid peroxidation [1]	COX-2 enzyme inhibition ([2]; 100 μg/ml)	other results
23,24-dihydrowithaferin A [Compound 9]		did not show activity	neither COX-1 nor COX-2 activities	COX-1 activity ([3]; 100 μg/ml): neither COX-1 nor COX-2 activities
CC(=O)Oc1ccccc1C(=O)O [Aspirin, reference compound]				COX-1 inhibition ([3]; tested at 180 μg/ml): 61%; inhibition at 180 µg/mL ([2]; read-out: COX-2 inhibition): 7%
CC1=C(CO[C@@H]2O[C@H](CO)[C@@H](O)[C@H](O)[C@H]2O)C(=O)OC([C@@H](C)[C@H]2CC[C@H]3[C@@H]4C[C@H]5O[C@]56[C@@H](O)[C@@H](O)CC(=O)[C@]6(C)[C@H]4CC[C@]23C)C1 (stereo partly drawn) [Compound 3, 27-O-β-D-glucopyranosyl viscosalactone B]	7			
CC1=C(CO)C(=O)O[C@@H]([C@@H](C)[C@H]2CC[C@H]3[C@@H]4C[C@H]5O[C@]56[C@@H](O)C=CC(=O)[C@]6(C)[C@H]4CC[C@]23C)C1 [Compound 6, withaferin A]		did not show activity	39%	
CC1=C(CO)C(=O)OC(C(C)C2CCC3C4CC5OC56C(O)CCC(=O)C6(C)C4CCC23C)C1 (centres unmarked) [Compound 7, 2,3-dihydrowithaferin A]		5%	27%	
CC1=C(CO)C(=O)O[C@@H]([C@@H](C)[C@H]2CC[C@H]3[C@@H]4C[C@H]5O[C@]56[C@@H](O)[C@@H](O)CC(=O)[C@]6(C)[C@H]4CC[C@]23C)C1 [Compound 8, viscosalactone B]		did not show activity	35%	
CC1=C(CO[C@@H]2O[C@H](CO)[C@@H](O)[C@H](O)[C@H]2O)C(=O)O[C@@H]([C@@H](C)[C@H]2CC[C@H]3[C@@H]4C[C@H]5O[C@]56[C@@H](O)C=CC(=O)[C@]6(C)[C@H]4CC[C@]23C)C1 [Compound 10, sitoindoside IX]		44%		inhibition at 100 µg/mL ([2]; read-out: COX-2 enzyme inhibition): 13%
CC1=C(CO)C(=O)O[C@@H]([C@@H](C)[C@H]2CC[C@H]3[C@@H]4CC=C5C[C@@H](O[C@@H]6O[C@H](CO)[C@@H](O)[C@H](O)[C@H]6O)C[C@H](O)[C@]5(C)[C@H]4CC[C@]23C)C1 [Compound 11, physagulin D]		55%	14%	
CC1=C(CO)C(=O)O[C@@H]([C@@H](C)[C@H]2CC[C@H]3[C@@H]4CC=C5C[C@@H](O[C@@H]6O[C@H](CO[C@@H]7O[C@H](CO)[C@@H](O)[C@H](O)[C@H]7O)[C@@H](O)[C@H](O)[C@H]6O)C[C@H](O)[C@]5(C)[C@H]4CC[C@]23C)C1 [Compound 12, withanolide IV]		did not show activity	23%	
COc1ccc2cc([C@H](C)C(=O)O)ccc2c1 [naproxen, reference compound]				inhibition at 2.5 µg/mL ([3]; read-out: COX-1 inhibition): 79%; inhibition at 2.5 µg/mL ([2]; read-out: COX-2 inhibition): 95%
physagulin D (1→6)-β-D-glucopyranosyl-(1→4)-β-D-glucopyranoside [Compound 1]	15			

Further lines, with some results ahead:

COX-2 enzyme inhibition ([2]; 50 μg/ml) [%]	Compound	inhibition of lipid peroxidation [1]	COX-2 enzyme inhibition ([2]; 100 μg/ml)	other results
5	4,16-dihydroxy-5β,6β-epoxyphysagulin D [Compound 4]	40%		
15	4-(1-hydroxy-2,2-dimethylcyclo-propanone)-2,3-dihydrowithaferin A [Compound 5]	did not show activity		
9	27-O-β-D-glucopyranosyl physagulin D [Compound 2]			
